pIC50: −log10 of the molar value. Several values for one entry are separate records, joined by “and”; a condition that tells them apart may be missing. Identical values can stand only once. Counter-ions that a name gives are not always drawn. Like-named read-outs stand apart in the source and are kept apart here.

This note sets out measurements from article PMC6937593, “Anti-metastatic Inhibitors of Lysyl Oxidase (LOX): Design and Structure–Activity Relationships” (Journal of Medicinal Chemistry, 2019).

The target of one data set is T1, LOX (Sus scrofa, UniProt P45845).
T1 construct: LOX enzyme was extracted from pig skin by the method of Shackleton and Hulmes; from tissue; host or cells: pig skin
T1 sequence (P45845 1-249): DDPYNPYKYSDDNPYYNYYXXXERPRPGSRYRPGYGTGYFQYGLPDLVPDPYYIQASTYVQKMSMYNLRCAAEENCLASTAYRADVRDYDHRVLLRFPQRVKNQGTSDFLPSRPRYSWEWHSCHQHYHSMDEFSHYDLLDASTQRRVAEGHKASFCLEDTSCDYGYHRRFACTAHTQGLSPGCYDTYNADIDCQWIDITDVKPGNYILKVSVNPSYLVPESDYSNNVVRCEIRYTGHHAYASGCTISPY
The data set can be described thus: LOX enzyme activity assay (HRP-coupled fluorescent, cadaverine substrate).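 As to all read-outs here: LOX isolated from porcine skin, nine-point dilution series starting at 100 µM, 20 min preincubation with enzyme, BAPN serving as positive control.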 Type of data set: biochemical, pig. Conditions: for fold more potent than HTS hit 2a (LOX IC50): vs 2a.

A further data set in a line: MLM stability assay. Type of data set: in vitro ADME, mouse. Conditions: percentage of compound remaining after 30 min; 10 μM.
The next data set can be described thus: In vivo PK in mice. Conditions: mouse plasma, single oral gavage dose 50 mg/kg. Also on record: species or system mouse.
Where [1] appears, read: n ≥ 2, n = 2: individual values, n > 2: geometric mean [95% CI], 20 min preincubation, read-out: LOX IC50.

Method for In vivo PK in mice: Female BALB/c or CD1 mice (Charles River Laboratories) at 6 weeks of age were used for the PK analyses. The mice were dosed orally by gavage (50 mg/kg in dimethyl sulfoxide (DMSO)/water 1:19 v/v; n = 21) or intravenously in the tail vein (10 mg/kg in DMSO/Tween20/saline 10:1:89 v/v/v; n = 24). […] Three mice were used per time point per route. They were placed under halothane or isoflurane anesthesia, and blood for plasma preparation was taken by terminal cardiac puncture into heparinized syringes. Plasma samples were snap-frozen in liquid nitrogen and then stored at −80 °C prior to analysis.
Method for LOX: LOX enzyme was extracted from pig skin by the method of Shackleton and Hulmes.[24] LOX catalytic activity was determined using a horseradish peroxidase (HRP)-coupled fluorescent assay previously described,[19] with cadaverine hydrochloride as a substrate, BAPN as positive control, and a preincubation time of 20 min with nine dilutions from a top concentration of 100 μM.
Method for MLM stability assay: Mouse liver microsomes (BALB/c) were purchased from Tebu-bio, and the assay was performed by methods previously described.[19] Inhibitors at 10 μM concentration incubated with the microsomes were assessed at 0, 15, and 30 min. Control samples containing no microsomes and no cofactors were also assessed at 0 and 30 min. Samples were extracted by protein precipitation and centrifugation for 20 min in a refrigerated centrifuge (4 °C) at 3700 rpm. The supernatant was analyzed by LCMS/MS for % metabolized over time.

For `CS(=O)(=O)c1ccc(-c2ccc(CN)s2)cc1` [4e, (5-(4-(Methylsulfonyl)phenyl)thiophen-2-yl)methanamine Hydrochloride], the pIC50 at LOX (setting [1]) was 4.89. With `CS(=O)(=O)N1CCCN(S(=O)(=O)c2ccc(CN)s2)CC1` [2m, (5-(4-(Methylsulfonyl)-1,4-diazepan-1-ylsulfonyl)thiophen-2-yl)methanamine], the pIC50 on LOX (setting [1]) is 6.03. For the same compound, the “MLM stability (%)” value in the data set “MLM stability assay” is 37%. On to `NC(=O)c1ccc(S(=O)(=O)c2ccccc2)s1` [6e, 5-(Phenylsulfonyl)thiophene-2-carboxamide], for which the pIC50 at LOX (setting [1]) is < 4.00. Consider `CCNC(=O)N1CCCN(S(=O)(=O)c2ccc(CN)s2)CC1` [2l, 4-(5-(Aminomethyl)thiophen-2-ylsulfonyl)-N-ethyl-1,4-diazepane-1-carboxamide], for which the pIC50 on LOX (setting [1]) was 5.68. On the same count and under the same terms, in the case of `CN1CCCN(S(=O)(=O)c2ccc(CN)s2)CC1` [2k, (5-(4-Methyl-1,4-diazepan-1-ylsulfonyl)thiophen-2-yl)methanamine] it was 5.51; in that of `NCc1ccc(S(=O)(=O)N2CCC[C@H]2CO)s1` [2e, (S)-(1-(5-(Aminomethyl)thiophen-2-ylsulfonyl)pyrrolidin-2-yl)methanol], 5.51 and 5.48.

With `CNCc1ccc(S(=O)(=O)c2ccccc2)s1` [6a, N-Methyl-1-(5-(phenylsulfonyl)thiophen-2-yl)methanamine Hydrochloride], at LOX (setting [1]), the pIC50 was < 4.00. For `CC(C)(C)Oc1cc(S(C)(=O)=O)cc(S(=O)(=O)c2ccc(CN)s2)c1` [9b, (5-((3-(tert-Butoxy)-5-(methylsulfonyl)phenyl)sulfonyl)thiophen-2-yl)methanamine], in “MLM stability assay”, the “MLM stability (%)” value is given as 67%. Also, in the data set “In vivo PK in mice”, the “AUC(PO)” value was 2.3 µM·h and the Cmax was 6.3 µM. Take `CN(C)S(=O)(=O)c1ccc(CN)s1` [2b, 5-(Aminomethyl)-N,N-dimethylthiophene-2-sulfonamide]: the pIC50 at LOX (setting [1]) is 4.15 and 4.14. As for `CC(C)(C)c1cc(S(C)(=O)=O)cc(S(=O)(=O)c2ccc(CN)s2)c1` [9a, (5-((3-(tert-Butyl)-5-(methylsulfonyl)phenyl)sulfonyl)thiophen-2-yl)methanamine], the “MLM stability (%)” value in the data set “MLM stability assay” amounted to 68%. Also, in the data set “In vivo PK in mice”, the “AUC(PO)” value stood at 6.5 µM·h and the Cmax worked out at 16 µM. Turning to `NCc1ccc(C(=O)NCc2ccccc2)o1` [5e, 5-(Aminomethyl)-N-benzylfuran-2-carboxamide], the pIC50 on LOX (setting [1]) was 4.40 and 4.35. Regarding `Cl.Cl.NCc1ccc(S(=O)(=O)N2CCCNCC2)s1` [2j, (5-(1,4-Diazepan-1-ylsulfonyl)thiophen-2-yl)methanamine Dihydrochloride], the pIC50 on LOX (setting [1]) was 5.03 and 4.90. In addition, the “fold more potent than HTS hit 2a (LOX IC50)” value at LOX was ~2 fold.

For the compound `NCc1ccc(S(=O)(=O)N2CCc3ccccc32)s1` [2g, (5-(Indolin-1-ylsulfonyl)thiophen-2-yl)methanamine], at LOX (setting [1]), the pIC50 was 5.72. Moreover, the “fold more potent than HTS hit 2a (LOX IC50)” value on LOX is ~10 fold. `CS(=O)(=O)c1ccc(S(=O)(=O)c2ccc(CN)s2)cc1` [3i, (5-(4-(Methylsulfonyl)phenylsulfonyl)thiophen-2-yl)methanamine]: in the data set “MLM stability assay”, the “MLM stability (%)” value stood at 67%. For the compound `O=S(=O)(c1ccc2ccccc2c1)c1ccc(/C=N/O)s1` [6f, 5-(Naphthalen-2-ylsulfonyl)thiophene-2-carbaldehyde Oxime], at LOX (setting [1]), the pIC50 is < 4.00. Same read-out and setting: in the case of `CCNS(=O)(=O)c1ccc(CN)s1` [2c, 5-(Aminomethyl)-N-ethylthiophene-2-sulfonamide] it was 4.57 and 4.51. Same read-out and setting: the same measure for `NCc1ccc(S(=O)(=O)N2CCC[C@H]2C(N)=O)s1` [2d, (S)-1-(5-(Aminomethyl)thiophen-2-ylsulfonyl)pyrrolidine-2-carboxamide]: 4.96 and 4.89; for `N=C(N)c1ccc(S(=O)(=O)c2ccccc2)s1` [6d, 5-(Phenylsulfonyl)thiophene-2-carboximidamide Hydrochloride]: < 4.00; for `NCc1ccc(S(=O)(=O)N2CCCc3ccccc32)s1` [2h, (5-(3,4-Dihydroquinolin-1(2H)-ylsulfonyl)thiophen-2-yl)methanamine]: 5.60 and 5.57. As to `CC(N)c1ccc(S(=O)(=O)c2ccccc2)s1` (stereo not drawn) [6b, 1-(5-(Phenylsulfonyl)thiophen-2-yl)ethanamine], the pIC50 at LOX (setting [1]) is < 4.00. On to `NCc1ccc(C(=O)NCc2ccccc2)s1` [4d, 5-(Aminomethyl)-N-benzylthiophene-2-carboxamide], for which, on LOX (setting [1]), the pIC50 is 4.70 and 4.60. On the same count and under the same terms, the same measure for `NCc1ccc(S(=O)(=O)N2CCCC2c2ccccc2)s1` (stereo not drawn) [2f, (5-(2-Phenylpyrrolidin-1-ylsulfonyl)thiophen-2-yl)methanamine]: 5.42.

As for `NCc1ccc(S(=O)(=O)NCc2ccccc2)s1` [4c, 5-(Aminomethyl)-N-benzylthiophene-2-sulfonamide], the pIC50 on LOX (setting [1]) is 4.82. As for `NCc1ccc(S(=O)(=O)c2cccc(S(=O)(=O)N3CCC[C@H]3CO)c2)s1` [8e, (S)-(1-((3-((5-(Aminomethyl)thiophen-2-yl)sulfonyl)phenyl)sulfonyl)pyrrolidin-2-yl)methanol], the “MLM stability (%)” value in “MLM stability assay” amounted to 63%. Further, in the data set “In vivo PK in mice”, the “AUC(PO)” value came to 0.46 µM·h and the highest concentration (Cmax) turned out to be 1.5 µM.

For `NCc1ccc(S(=O)(=O)N2CCOCC2)s1` [2i, (5-(Morpholinosulfonyl)thiophen-2-yl)methanamine], on LOX (setting [1]), the pIC50 was 4.70 and 4.60. For the compound `NCc1sccc1S(=O)(=O)c1ccc2ccccc2c1` [7a, (3-(Naphthalen-2-ylsulfonyl)thiophen-2-yl)methanamine], the “LOX inhibition (in words)” value at LOX was “no inhibitory activity”. Moreover, at LOX (setting [1]), the pIC50 is < 4.00. For the compound `NCc1ccc(S(=O)(=O)c2ccc3ccccc3c2)s1` [3g, (5-(Naphthalen-2-ylsulfonyl)thiophen-2-yl)methanamine], the “MLM stability (%)” value in “MLM stability assay” is 100%. In “In vivo PK in mice”, the “AUC(PO)” value turned out to be 4.2 µM·h and the Cmax was 15 µM. Regarding `CC(=O)NCCS(=O)(=O)c1ccc(S(=O)(=O)c2ccc(CN)s2)cc1.Cl` [8j, N-(2-((4-((5-(Aminomethyl)thiophen-2-yl)sulfonyl)phenyl)sulfonyl)ethyl)-acetamide Hydrochloride], the “MLM stability (%)” value in the data set “MLM stability assay” worked out at 91%. In the data set “In vivo PK in mice”, the “AUC(PO)” value was 0.36 µM·h and the Cmax was 0.38 µM. As to `NCc1ccc(S(=O)(=O)N2CCCCC2)s1` [2a, (5-(Piperidin-1-ylsulfonyl)thiophen-2-yl)methanamine], the pIC50 is 4.72 at LOX (high-throughput screen hit, read-out: mean IC50 (LOX, HTS hit)); 4.77 and 4.68 on LOX (setting [1]). With `Cl.Cl.Cn1cc(-c2cc(S(=O)(=O)c3ccc(CN)s3)ccc2S(C)(=O)=O)cn1` [9j, (5-((3-(1-Methyl-1H-pyrazol-4-yl)-4-(methylsulfonyl)phenyl)sulfonyl)thiophen-2-yl)methanamine Dihydrochloride], the “MLM stability (%)” value in the data set “MLM stability assay” is reported as 90%. In the data set “In vivo PK in mice”, the “AUC(PO)” value came to 2.8 µM·h and the peak level (Cmax) was 9.6 µM. On to `Cc1cc(CN)sc1S(=O)(=O)N1CCc2ccccc21` [5f, (5-(Indolin-1-ylsulfonyl)-4-methylthiophen-2-yl)methanamine], for which the pIC50 on LOX (setting [1]) is 4.92 and 4.89. For the compound `CS(=O)(=O)c1ccc(S(=O)(=O)c2ccc(CN)s2)cc1-c1ccccc1` [9k, (5-((6-(Methylsulfonyl)-[1,1′-biphenyl]-3-yl)sulfonyl)thiophen-2-yl)methanamine], the “MLM stability (%)” value in “MLM stability assay” was 41%. In “In vivo PK in mice”, the “AUC(PO)” value amounted to 1.4 µM·h and the concentration peaked (Cmax) at 1.6 µM.

Turning to `NCc1cscc1S(=O)(=O)c1ccc2ccccc2c1` [7b, (4-(Naphthalen-2-ylsulfonyl)thiophen-3-yl)methanamine], the “LOX inhibition (in words)” value at LOX is reported as “no inhibitory activity”. Also, the negative-log IC50 (pIC50) on LOX (setting [1]) was < 4.00. Turning to `Cl.Cl.NCc1ccc(S(=O)(=O)Cc2ccccc2)nc1` [5a, (6-(Benzylsulfonyl)pyridin-3-yl)methanamine Dihydrochloride], at LOX (setting [1]), the pIC50 is 4.60. Further, the “fold weaker than aminomethylenethiophene counterpart 5b (LOX)” value at LOX (vs 5b) is on record as ~10 fold.

Regarding `NCc1ccc(Sc2ccccc2)s1` [4b, (5-(Phenylthio)thiophen-2-yl)methanamine Hydrochloride], the pIC50 on LOX (setting [1]) was 4.85 and 4.57. Same read-out and setting: the same measure for `N#Cc1ccc(S(=O)(=O)c2ccccc2)s1` [6c, 5-(Phenylsulfonyl)thiophene-2-carbonitrile]: < 4.00. As for `NCc1ccc(S(=O)(=O)c2cccc(S(=O)(=O)N3CCCC3)c2)s1` [8d, (5-((3-(Pyrrolidin-1-ylsulfonyl)phenyl)sulfonyl)thiophen-2-yl)methanamine], the “MLM stability (%)” value in the data set “MLM stability assay” is on record as 59%. Besides, in “In vivo PK in mice”, the “AUC(PO)” value is 0.22 µM·h and the Cmax is 0.83 µM.
